# Where “and” joins values, the source holds several entries; their conditions need not be identical. Equal values may be shown once.
# How the values were obtained:
# CAMK2B = molecular target: T1, CAMK2B (Homo sapiens, UniProt Q13554); test: 33PanQinase radiometric kinase assay, CAMK2B; format: biochemical
# T1 construct: purchased ProQinase; host or cells: Sf9 insect cells or E. coli
# Protocol: (§1) A radiometric protein kinase assay (33PanQinase Activity Assay) was used for measuring the kinase activity of the 320 protein kinases. All kinase assays were performed in 96-well FlashPlates™ from Perkin Elmer (Boston, Mass., USA) in a 50 μl reaction volume. The reaction cocktail was pipetted in 4 steps in the following order: • 1. 10 μl of non-radioactive ATP solution (in H2O) • 2. 25 μl of assay buffer/[γ-33P]-ATP mixture • 3. 5 μl of test sample in 10% DMSO • 4. 10 μl of enzyme/substrate mixture
# (§2) All PKC assays (except the PKC-mu and the PKC-nu assay) additionally contained 1 mM CaCl2, 4 mM EDTA, 5 μg/ml phosphatidylserine and 1 μg/ml 1,2-dioleyl-glycerol.
# The CAMKID, CAMK2A, CAMK2B, CAMK2D, CAMK4, CAMKK1, CAMKK2, DAPK2, EEF2K, MYLK, MYLK2 and MYLK3 assays additionally contained 1 μg/ml Calmodulin and 0.5 mM CaCl2). The PRKG1 and PRKG2 assays additionally contained 1 μM cGMP. The DNA-PK assay additionally contained 2.5 μg/ml DNA. The protein kinase reaction cocktails were incubated at 30° C. for 60 minutes. The reaction was stopped with 50 μl of 2% (v/v) H3PO4, plates were aspirated and washed two times with 200 μl 0.9% (w/v) NaCl. Incorporation of 33Pi (counting of “cpm”) was determined with a microplate scintillation counter (Microbeta, Wallac). All protein kinase assays were performed with a BeckmanCoulter Biomek 2000/SL robotic system.
# All protein kinases provided by ProQinase were expressed in Sf9 insect cells or in E. coli as recombinant GST-fusion proteins or His-tagged proteins, either as full-length or enzymatically active fragments. All kinases were produced from human cDNAs and purified by either GSHaffinity chromatography or immobilized metal. Affinity tags were removed from a number of kinases during purification. […]
# (§3) For each kinase, the median value of the cpm of three wells was defined as “low control” (n=3). This value reflects unspecific binding of radioactivity to the plate in the absence of a protein kinase but in the presence of the substrate. […] The residual activity (in %) for each compounds well was calculated by using the following formula: […]
# 320 protein kinases = test: 33PanQinase radiometric kinase assay, kinome profiling; format: biochemical, human; conditions: 1 μM; 320 kinases; initial test
# Protocol: as §1, §2
# The CAMKID, CAMK2A, CAMK2B, CAMK2D, CAMK4, CAMKK1, CAMKK2, DAPK2, EEF2K, MYLK, MYLK2 and MYLK3 assays additionally contained 1 μg/ml Calmodulin and 0.5 mM CaCl2). […] Incorporation of 33Pi (counting of “cpm”) was determined with a microplate scintillation counter (Microbeta, Wallac). […]
# Kinases from external vendors CAR=Carna Biosciences Inc.; INV=Life Technologies (Invitrogen Corporation); MIL=Merck-Millipore (Millipore Corporation) were expressed, purified and quality-controlled by virtue of the vendors readings.
# For each kinase, the median value of the cpm of three wells was defined as “low control” (n=3). […] The residual activity (in %) for each compounds well was calculated by using the following formula: […]
# Adenosine Transporter = molecular target: T2, Adenosine Transporter (Cavia porcellus, UniProt H0V4R7); test: Panlab assay, Adenosine Transporter; format: binding
# T2 sequence (H0V4R7 1-461): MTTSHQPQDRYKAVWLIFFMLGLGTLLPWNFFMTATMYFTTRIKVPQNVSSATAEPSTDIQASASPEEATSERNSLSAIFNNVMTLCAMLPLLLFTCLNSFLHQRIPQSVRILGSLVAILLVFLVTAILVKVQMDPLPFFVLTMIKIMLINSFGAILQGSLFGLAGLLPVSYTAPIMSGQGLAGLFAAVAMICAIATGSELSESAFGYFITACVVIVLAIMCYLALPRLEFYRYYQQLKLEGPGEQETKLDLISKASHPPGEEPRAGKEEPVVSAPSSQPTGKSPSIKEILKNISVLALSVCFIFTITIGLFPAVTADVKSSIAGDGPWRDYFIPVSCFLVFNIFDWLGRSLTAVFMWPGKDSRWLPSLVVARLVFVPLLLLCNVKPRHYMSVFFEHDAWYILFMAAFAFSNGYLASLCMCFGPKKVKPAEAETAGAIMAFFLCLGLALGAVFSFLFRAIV
# Protocol: (§4) Compounds A, B, C, and D were tested in Panlab assays to evaluate potential off-target activity using standard assay kits. Methods employed in these studies have been adapted from the scientific literature to maximize reliability and reproducibility. Reference standards were run as an integral part of each assay to ensure the validity of the results obtained.
# (§5) IC50 values were determined by a non-linear, least squares regression analysis using MathIQ™ (ID Business Solutions Ltd., UK). Where inhibition constants (Ki) are presented, the Ki values were calculated using the equation of Cheng and Prusoff (Cheng, Y., Prusoff, W. H., Biochem. Pharmacol. 22:3099-3108, 1973) using the observed IC50 of the tested compound, the concentration of radioligand employed in the assay, and the historical values for the KD of the ligand (obtained experimentally at Eurofins Panlabs, Inc.). Where presented, the Hill coefficient (nH), defining the slope of the competitive binding curve, was calculated using MathIQ™.
# Opiate μ(OP3, MOP) = molecular target: T3, Opiate μ(OP3, MOP) (Homo sapiens, UniProt P35372); test: Panlab assay, Opiate μ(OP3, MOP); format: binding
# T3 construct: Eurofins Panlabs
# T3 sequence (P35372 whole entry): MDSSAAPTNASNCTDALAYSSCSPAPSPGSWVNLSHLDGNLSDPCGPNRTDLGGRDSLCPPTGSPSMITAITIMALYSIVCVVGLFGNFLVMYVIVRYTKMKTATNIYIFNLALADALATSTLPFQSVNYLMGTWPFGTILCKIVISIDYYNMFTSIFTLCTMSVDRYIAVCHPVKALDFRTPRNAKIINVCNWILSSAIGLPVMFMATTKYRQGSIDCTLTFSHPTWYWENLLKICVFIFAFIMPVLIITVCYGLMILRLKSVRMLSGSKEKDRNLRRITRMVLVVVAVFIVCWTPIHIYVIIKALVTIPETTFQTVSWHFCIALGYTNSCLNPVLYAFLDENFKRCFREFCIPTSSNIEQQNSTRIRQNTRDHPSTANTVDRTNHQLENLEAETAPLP
# Protocol: (§6) Compounds A, B, C, and D were tested in Panlab assays to evaluate potential off-target activity using standard assay kits. Methods employed in these studies have been adapted from the scientific literature to maximize reliability and reproducibility.
# (§7) IC50 values were determined by a non-linear, least squares regression analysis using MathIQ™ (ID Business Solutions Ltd., UK). […] Where presented, the Hill coefficient (nH), defining the slope of the competitive binding curve, was calculated using MathIQ™.
# Tachykinin NK1 = molecular target: T4, Tachykinin NK1 (Homo sapiens, UniProt P25103); test: Panlab assay, Tachykinin NK1; format: binding
# T4 construct: Eurofins Panlabs
# T4 sequence (P25103 whole entry): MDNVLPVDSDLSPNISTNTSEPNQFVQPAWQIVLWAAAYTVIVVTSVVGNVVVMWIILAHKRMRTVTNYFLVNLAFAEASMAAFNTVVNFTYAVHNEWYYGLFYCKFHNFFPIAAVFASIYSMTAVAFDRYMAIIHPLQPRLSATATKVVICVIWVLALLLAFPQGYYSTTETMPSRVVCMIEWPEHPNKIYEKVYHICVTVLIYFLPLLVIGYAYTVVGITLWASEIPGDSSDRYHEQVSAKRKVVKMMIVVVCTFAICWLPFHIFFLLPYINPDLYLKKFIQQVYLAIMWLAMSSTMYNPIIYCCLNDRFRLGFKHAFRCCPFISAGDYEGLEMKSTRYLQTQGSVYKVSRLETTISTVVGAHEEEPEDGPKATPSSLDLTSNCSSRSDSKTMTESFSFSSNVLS
# Protocol: as §4, §5
# Phosphodiesterase PDE3 = molecular target: T5, Phosphodiesterase PDE3 (Homo sapiens, UniProt Q14432); test: Panlab assay, Phosphodiesterase PDE3; format: biochemical; conditions: read-out: IC50, inhibition of Phosphodiesterase PDE3 activity
# T5 construct: Eurofins Panlabs
# T5 sequence (Q14432 whole entry): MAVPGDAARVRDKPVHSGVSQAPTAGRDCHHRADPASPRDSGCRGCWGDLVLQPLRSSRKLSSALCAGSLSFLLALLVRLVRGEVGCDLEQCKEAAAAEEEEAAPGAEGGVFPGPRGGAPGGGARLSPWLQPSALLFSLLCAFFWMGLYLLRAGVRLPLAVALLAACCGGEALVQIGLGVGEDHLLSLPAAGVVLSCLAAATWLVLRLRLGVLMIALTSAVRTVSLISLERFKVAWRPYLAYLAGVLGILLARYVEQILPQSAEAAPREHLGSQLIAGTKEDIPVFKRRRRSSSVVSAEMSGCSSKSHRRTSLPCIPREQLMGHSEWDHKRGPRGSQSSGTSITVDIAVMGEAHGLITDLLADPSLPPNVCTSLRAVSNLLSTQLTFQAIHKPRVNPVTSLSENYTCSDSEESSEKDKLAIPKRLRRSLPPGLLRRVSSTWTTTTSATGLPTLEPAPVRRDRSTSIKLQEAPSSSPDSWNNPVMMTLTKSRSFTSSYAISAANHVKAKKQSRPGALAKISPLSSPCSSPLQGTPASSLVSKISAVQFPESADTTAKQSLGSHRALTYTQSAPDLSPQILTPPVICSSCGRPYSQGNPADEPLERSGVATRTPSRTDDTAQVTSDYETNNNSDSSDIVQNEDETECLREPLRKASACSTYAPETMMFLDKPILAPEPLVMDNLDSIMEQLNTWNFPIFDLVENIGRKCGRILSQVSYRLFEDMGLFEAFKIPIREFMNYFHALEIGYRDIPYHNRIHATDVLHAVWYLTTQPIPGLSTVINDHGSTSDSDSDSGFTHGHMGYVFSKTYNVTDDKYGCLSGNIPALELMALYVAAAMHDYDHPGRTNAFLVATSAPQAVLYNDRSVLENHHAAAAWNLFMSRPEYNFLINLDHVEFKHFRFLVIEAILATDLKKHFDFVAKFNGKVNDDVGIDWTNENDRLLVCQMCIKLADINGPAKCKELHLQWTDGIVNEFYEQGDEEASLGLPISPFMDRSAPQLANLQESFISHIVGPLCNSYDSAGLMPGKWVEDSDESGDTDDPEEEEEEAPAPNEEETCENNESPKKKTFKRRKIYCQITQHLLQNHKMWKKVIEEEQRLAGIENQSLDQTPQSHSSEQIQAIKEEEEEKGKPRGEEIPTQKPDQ
# Protocol: as §6, §7
# Dopamine Transporter = molecular target: T6, Dopamine Transporter (Homo sapiens, UniProt Q01959); test: Panlab assay, Dopamine Transporter; format: binding
# T6 construct: Eurofins Panlabs
# T6 sequence (Q01959 whole entry): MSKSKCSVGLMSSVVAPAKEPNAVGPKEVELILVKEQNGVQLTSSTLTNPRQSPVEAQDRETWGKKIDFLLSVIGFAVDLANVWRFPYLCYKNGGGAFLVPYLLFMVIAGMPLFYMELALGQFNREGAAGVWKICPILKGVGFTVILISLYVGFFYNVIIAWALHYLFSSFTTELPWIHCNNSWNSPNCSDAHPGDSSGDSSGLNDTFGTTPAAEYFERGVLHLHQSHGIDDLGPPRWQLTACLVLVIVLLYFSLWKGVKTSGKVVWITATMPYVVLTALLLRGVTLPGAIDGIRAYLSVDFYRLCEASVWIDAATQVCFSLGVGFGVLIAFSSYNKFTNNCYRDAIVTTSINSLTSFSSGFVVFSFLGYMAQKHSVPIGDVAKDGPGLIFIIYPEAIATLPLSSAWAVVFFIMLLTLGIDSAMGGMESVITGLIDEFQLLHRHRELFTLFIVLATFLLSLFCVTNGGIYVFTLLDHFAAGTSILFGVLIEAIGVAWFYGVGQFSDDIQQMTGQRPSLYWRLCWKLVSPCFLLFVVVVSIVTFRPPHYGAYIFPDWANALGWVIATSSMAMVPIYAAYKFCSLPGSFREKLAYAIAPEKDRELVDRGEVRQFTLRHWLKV
# Protocol: as §6, §7
# ALK = molecular target: T7, ALK (Homo sapiens, UniProt Q9UM73); test: 33PanQinase radiometric kinase assay, ALK; format: biochemical; conditions: in vitro, read-out: percent inhibition of ALK
# T7 construct: purchased ProQinase; host or cells: Sf9 insect cells or E. coli
# T7 sequence (Q9UM73 19-1620): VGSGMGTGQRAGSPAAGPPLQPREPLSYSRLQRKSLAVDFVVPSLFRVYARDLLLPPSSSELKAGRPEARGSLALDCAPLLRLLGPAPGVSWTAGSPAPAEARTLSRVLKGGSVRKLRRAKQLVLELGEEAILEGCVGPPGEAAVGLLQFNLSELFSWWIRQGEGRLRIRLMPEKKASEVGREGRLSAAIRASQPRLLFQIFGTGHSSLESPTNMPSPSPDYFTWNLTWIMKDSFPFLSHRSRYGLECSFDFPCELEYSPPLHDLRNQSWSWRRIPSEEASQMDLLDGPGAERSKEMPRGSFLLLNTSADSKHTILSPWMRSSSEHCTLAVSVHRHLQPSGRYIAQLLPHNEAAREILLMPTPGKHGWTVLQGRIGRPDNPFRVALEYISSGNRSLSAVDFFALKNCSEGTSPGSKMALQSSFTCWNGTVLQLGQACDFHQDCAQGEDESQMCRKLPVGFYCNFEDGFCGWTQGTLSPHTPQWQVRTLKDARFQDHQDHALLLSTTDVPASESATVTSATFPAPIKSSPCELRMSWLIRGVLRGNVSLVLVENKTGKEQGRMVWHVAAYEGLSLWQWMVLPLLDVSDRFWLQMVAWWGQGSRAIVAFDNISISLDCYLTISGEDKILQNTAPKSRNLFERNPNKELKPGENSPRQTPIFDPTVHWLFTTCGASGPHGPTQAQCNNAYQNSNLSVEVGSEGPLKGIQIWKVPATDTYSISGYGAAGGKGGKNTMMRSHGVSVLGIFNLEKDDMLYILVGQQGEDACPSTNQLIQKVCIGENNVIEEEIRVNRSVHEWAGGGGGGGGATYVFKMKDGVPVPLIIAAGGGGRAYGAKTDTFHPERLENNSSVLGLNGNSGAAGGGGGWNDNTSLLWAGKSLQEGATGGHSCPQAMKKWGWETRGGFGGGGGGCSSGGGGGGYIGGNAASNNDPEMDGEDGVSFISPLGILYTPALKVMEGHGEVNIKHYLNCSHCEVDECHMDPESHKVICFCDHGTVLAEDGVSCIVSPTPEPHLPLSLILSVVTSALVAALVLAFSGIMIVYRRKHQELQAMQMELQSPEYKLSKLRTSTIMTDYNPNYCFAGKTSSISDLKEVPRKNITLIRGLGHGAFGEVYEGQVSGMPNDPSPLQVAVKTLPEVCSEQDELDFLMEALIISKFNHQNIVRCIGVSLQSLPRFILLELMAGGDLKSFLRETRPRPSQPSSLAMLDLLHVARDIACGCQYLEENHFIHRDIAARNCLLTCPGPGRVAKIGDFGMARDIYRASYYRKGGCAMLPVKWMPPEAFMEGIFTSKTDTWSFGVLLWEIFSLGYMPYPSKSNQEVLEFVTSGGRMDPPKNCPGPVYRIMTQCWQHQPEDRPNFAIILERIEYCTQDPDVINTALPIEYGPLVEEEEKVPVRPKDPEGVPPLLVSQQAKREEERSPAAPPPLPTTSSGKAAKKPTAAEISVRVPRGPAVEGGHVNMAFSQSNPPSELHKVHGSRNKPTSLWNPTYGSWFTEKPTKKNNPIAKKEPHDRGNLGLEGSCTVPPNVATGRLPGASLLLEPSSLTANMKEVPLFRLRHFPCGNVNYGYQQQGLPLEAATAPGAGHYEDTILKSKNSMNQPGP
# Protocol: as §1, §2
# The CAMKID, CAMK2A, CAMK2B, CAMK2D, CAMK4, CAMKK1, CAMKK2, DAPK2, EEF2K, MYLK, MYLK2 and MYLK3 assays additionally contained 1 μg/ml Calmodulin and 0.5 mM CaCl2). The PRKG1 and PRKG2 assays additionally contained 1 μM cGMP. The DNA-PK assay additionally contained 2.5 μg/ml DNA. […] Incorporation of 33Pi (counting of “cpm”) was determined with a microplate scintillation counter (Microbeta, Wallac). […]
# as §3
structure (smiles),measurement,setting,value
"C[C@]12CC=C3C=C4CC[C@@H](O)C[C@]45CC[C@]3(O5)[C@@H]1CC[C@@H]2c1ccc2ccncc2c1 [Compound A, (3S,3aR,9R,10aR,12aS,12bR)-3-(isoquinolin-7-yl)-3a-methyl-1,2,3,3a,4,7,8,9,10,11,12,12b-dodecahydro-10a,12a-epoxybenzo[4,5]cyclohepta[1,2-e]inden-9-ol]",inhibition at 1 µM,"CAMK2B; 1 μM, 2 replicates, read-out: average percent inhibition of CAMK2B",> 50%
same,"percent inhibition of CAMK2B, replicates","CAMK2B; 1 μM, single replicates",36% and 79%
same,inhibition of CAMK2B upon retesting,CAMK2B; up to 10 μM,not inhibited
same,number of kinases with an average of >50% inhibition,320 protein kinases,5
same,IC50,Adenosine Transporter,3.61 µM
same,"nH (Hill coefficient), Adenosine Transporter",Adenosine Transporter,1.30
same,Ki,Adenosine Transporter; Cheng and Prusoff,1230 nM
same,IC50,"Opiate μ(OP3, MOP)",5.73 µM
same,"nH (Hill coefficient), Opiate μ(OP3, MOP)","Opiate μ(OP3, MOP)",0.90
same,Ki,"Opiate μ(OP3, MOP); Cheng and Prusoff",2330 nM
same,IC50,Tachykinin NK1,5.94 µM
same,"nH (Hill coefficient), Tachykinin NK1",Tachykinin NK1,1.01
same,Ki,Tachykinin NK1; Cheng and Prusoff,4.3 µM
same,IC50,Phosphodiesterase PDE3,3.26 µM
same,IC50,Dopamine Transporter,4.9 µM
same,"nH (Hill coefficient), Dopamine Transporter",Dopamine Transporter,0.97
same,Ki,Dopamine Transporter; Cheng and Prusoff,3.89 µM
same,inhibition at 1 µM,ALK,< 10%

# From patent US20180298024A1, “CORTISTATIN ANALOGS AND USES THEREOF” (President and Fellows of Harvard College, priority 2015, published 2018)
